Data on 3 compounds can be found in patent publication US8652786B2, “Method for predicting responsiveness to drugs” (The General Hospital Corporation, priority 2005, dated 2014).

“Also recorded” adds a separate entry of the source.

One assay has as its system NCI-H1650. Put plainly: Drug-sensitivity screen of 40 cancer cell lines, NCI-H1650. The class given is cell-based, human. The settings on record: gefitinib 100 nM to 10 μM, 3 days, DNA staining; del E746-A750 EGFR. How it is done:
(§1) Cells were cultured and analyzed in triplicate within microtiter plates. Cell numbers were quantitated by DNA staining, 3 days after addition of various concentrations of drugs and expressed as a fraction of matched untreated cultures. For each drug concentration, cell lines with relative drug sensitivity (<50% of untreated control growth) are shown in darkest staining, intermediate sensitivity (50-75%) in […], and drug insensitivity (>75%) in intermediate shading.
(§2) Cellular Proliferation and Viability Assays. […] For quantitation of cellular proliferation, cells were fixed at appropriate time points in 4% paraformaldehyde, and all plates were stained simultaneously by using the fluorescent nucleic acid stain SYTO60 (Molecular Probes) at 1:8,000 dilution in PBS. Quantitation was done by measuring the […] at 700 nm by using the Odyssey Imaging System (LI-COR, Lincoln, Nebr.). The relative cell number was obtained by normalizing treated samples to matched untreated specimens. For quantitation of cell viability, cultures were stained after 4 days by using the MTT assay. Briefly, 10 μl of 5 mg/ml MTT (Thiazolyl blue) solution was added to each well and incubated for 2 h at 37° C. […] The results were quantitated spectrophotometrically by using a test wavelength of 570 nm and a reference wavelength of 630 nm.

In assay [1] the test system is NCI-H1975 NSCLC cell line. Put plainly: Drug-sensitivity screen of 40 cancer cell lines, NCI-H1975. Particulars: gefitinib; L858R and T790M EGFR. The class given is cell-based, human. As to the method: as §1, §2
Assay [2] relates to Amp− cells. Briefly: MTT viability, gastric cancer cell lines without MET amplification. It is filed as cell-based, human. Particulars: 12 of 12 Amp− cell lines, 96 h.
Assay [3] concerns Amp+ cells. Put plainly: Apoptosis induction (cleaved caspase-3 staining, PARP cleavage), Amp+ cells. It is filed as cell-based, human. As to the method: (§3) Cells are costained with DAPI to show nuclei.
Cells were plated on coverslips in 12-well dishes and grown to approximately 75% confluency in 10% serum. […] After 72 h the cells were fixed with 4% paraformaldehyde for 20 minutes. Permeabilization with 1% NP40 for 5 minutes was followed by blocking with 3% BSA for 30 minutes. The coverslips were then incubated overnight at 4° C. with cleaved caspase-3 antibody at 1:200 dilution. The next day, the coverslips were washed 3 times with PBS and incubated with a secondary antibody (goat anti-rabbit FITC-conjugated) for 1 h at 1:250 dilution. Following 5 washes with PBS, coverslips were mounted in Vectashield mounting medium containing DAPI (Vector Laboratories; Burlingame, Calif.).
Apoptosis Induction Assay. […] After 72 h, cells were fixed with 4% paraformaldehyde for 20 min, permeabilized by using 1% Nonidet P-40 for 5 min, and blocked with 3% BSA for 30 min. The coverslips were then incubated overnight at 4° C. with cleaved caspase-3 antibody at 1:200 dilution. The next day, the coverslips were washed three times with PBS and incubated with a secondary antibody (goat anti-rabbit FITC-conjugated) for 1 h at 1:250 dilution. After five washes with PBS, coverslips were mounted in Vectashield mounting medium containing DAPI (Vector Laboratories), and staining was visualized by fluorescent microscopy.

Assay [4] concerns MET. Briefly: Immunoblot of constitutive MET autophosphorylation in Amp+ cells. It is filed as cell-based, human. The settings on record: 50 nM, 3 h. Background: In western blotting, separated proteins are transferred to a membrane and probed.
Assay [5] has as its system ERK1/2, AKT, STAT3, or FAK. Briefly: Immunoblot of baseline phosphorylation of downstream effectors in Amp− cells. The class given is cell-based, human. The settings on record: 3 h. As to the method:
(§4) FIG. 3: Constitutive activation of MET and activation of downstream signaling pathways in Amp^+ cells. (FIG. 3A) MET is constitutively activated in the Amp^+ cells. […] (FIG. 3B) Effect of HGF on MET activation in Amp^+ and Amp^− cells (representative immunoblots). Cells were serum-starved for 24 h and treated with 40 ng/ml HGF for 10 minutes. Phosphorylation of MET (Y1234/1235) is unaltered in Amp^+ cells treated with HGF, but it is induced by HGF in Amp^− cells (total MET control).
as §3
(§5) Cells were either directly lysated in 2× sample buffer or in RIPA buffer (150 mM NaCl, 50 mM Tris pH 8.0, 1% NP40, 0.5% DOC, 0.1% SDS, 1 mM EDTA, 10 mM NaF, 1 mM Na-orthovanadate, 1× protease inhibitor cocktail (Roche; Indianapolis, Ind.)). Cell lysates were sonicated for 10 sec and cleared by centrifugation at 14,000 rpm for 10 min at 4° C. Cleared lysates were boiled in sample buffer and loaded onto 10% SDS-PAGE gel. For immunoblotting analysis, proteins were transferred onto Immobilon PVDF membrane (Millipore; Bedford, Mass.) and visualized with Western Lightning Plus chemiluminescence kit (Perkin Elmer; Boston, Mass.).

Assay [6] relates to ERK1/2, AKT, STAT3, and FAK. Put plainly: Immunoblot of baseline phosphorylation of downstream effectors in Amp+ cells. Particulars: 50 nM, 3 h. It is filed as cell-based, human. How it is done: as §4, §3, §5
The subject of assay [7] is gastric cancer cell line MKN45. Put plainly: Drug-sensitivity screen of 40 cancer cell lines, MKN45. It is filed as cell-based, human. Particulars: 3 days, DNA staining; MET-amplified line. How it is done: as §1, §2
For assay [8], the system named is Amp− cells. Briefly: Growth curve (SYTO60), Amp− cells. It is filed as cell-based, human. Particulars: 1 μM, up to 6 days.
Assay [9] relates to Amp+ cells. Briefly: MTT viability, gastric cancer cell lines with MET amplification. It is filed as cell-based, human. Particulars: 5 of 5 Amp+ cell lines, 96 h.
For assay [10], the system named is MET. The settings on record: Morotti et al. 2002; cited from earlier work.
In assay [11] the test system is GTL-16 gastric carcinoma cells. Particulars: GTL-16 cells; cited from earlier work.
The test system of assay [12] is MET. Particulars: Morotti et al. 2002; cited from earlier work. This is another data set of the same source.

With `COc1cc2ncnc(Nc3ccc(F)c(Cl)c3)c2cc1OCCCN1CCOCC1` [gefitinib], in the assay with NCI-H1650, the “Extreme sensitivity (concentration)” value came to 100 nM. The “sensitivity in the assay” value in assay [1] was “relatively resistant”.
As to `Cc1[nH]c(/C=C2\C(=O)Nc3ccc(S(=O)(=O)Cc4c(Cl)cccc4Cl)cc32)c(C)c1C(=O)N1CCC[C@@H]1CN1CCCC1` [PHA-665752, (3Z)-5-[(2,6-dichlorobenzyl)sulfonyl]-3-[(3,5-dimethyl-4-{[(2R)-2-(pyrrolidin-1-ylmethyl)pyrrolidin-1-yl]carbonyl}-1H-pyrrol-2-yl)methylene]-1,3-dihydro-2H-indol-2-one], the “effect on number of viable cells” value in the assay on Amp− cells [2] is “resistant; also recorded: no effect”; in the assay with Amp+ cells [9], “dramatic decrease in the number of viable cells; also recorded: dramatic reduction in cell numbers”. The induction of apoptosis entry with Amp+ cells [3] (Amp+ cells, cleaved caspase-3 (1 μM, 72 h), PARP cleavage (500 nM, 72 h)) is on record as “apoptosis”. For the same compound, the “course of cell death” value in the assay on Amp+ cells [3] (MKN45 cells) is “more delayed but prolonged cell death”. In the assay on Amp+ cells [3] (SNU-5 cells, 72 h), the PARP-cleavage signal entry was “prominent PARP-cleavage signal”. Moreover, the “constitutive MET autophosphorylation” value in the assay on MET [4] was “effectively suppressed”. Moreover, the “baseline phosphorylation of ERK1/2, AKT, STAT3, FAK” value in assay [5] is given as “no effect”. For the same compound, in assay [6], the “baseline phosphorylation of downstream effectors ERK1/2, AKT, STAT3, FAK” value is reported as “effectively abrogated”. Moreover, the “Extreme sensitivity (concentration)” value in assay [7] is 100 nM. The “effect on proliferation rate” value in the assay on Amp− cells [8] is “unaffected”.
As for `COC(=O)[C@@]1(O)C[C@H]2O[C@]1(C)n1c3ccccc3c3c4c(c5c6ccccc6n2c5c31)C(=O)NC4` [K252a], the “inhibition of Met mediated signals” value with MET [10] is recorded as “inhibit Met mediated signals at nanomolar concentrations”. The Met-driven proliferation entry in [11] was “reduces Met-driven proliferation”. The Met autophosphorylation entry in the assay on MET [12] is listed as “inhibits Met autophosphorylation”.
